Reference: patent US20250160327A1, “USE OF CHROMENE OR CHROMANE DERIVATIVES AS HERBICIDAL AGENTS” (ECOLE POLYTECHNIQUE, priority 2022, published 2025)

System: Arabidopsis thaliana ecotype Col-0 seedlings
Test: Phytotoxicity test on Arabidopsis thaliana seedlings in hydroponics, visual analysis of chlorosis
Format: in vivo
Conditions: for herbicidal activity: at the concentration tested (125 pM), 48 h; for Activity after 48h: herbicidal activity, concentration of 125 pM, 48 h after application, seedlings at the cotyledon stage, max 1% DMSO
Description: Biological tests have been carried out under axenic conditions on Arabidopsis thaliana ecotype Col-0 seedlings cultured in hydroponics at the cotyledon stage. Sterilised seeds have been sown in microplates (10 seeds per well containing 200 μL of distilled water) and cultured for 10-13 days at 22° C. under a 16 h/8 h (day/night) photoperiod lighting. The treatment has been carried out by replacing the culture medium with an equivalent volume of water containing the molecule to be tested dissolved in DMSO. The maximum DMSO concentration in the treated wells was 1% by volume. A control has therefore been set up with the presence of DMSO at this concentration. The phytotoxicity of the treatment has been evaluated after 48 h of culture, by visual analysis of the chlorosis induced.
By way of comparison, tests have also been carried out under the same conditions as for compounds (Ia1), (Ia2), (Ia3) and (IC1), but with two comparative compounds not forming part of the invention: • a compound (2) including a diphenol ring in place of the chromene ring, and • a compound (3) including a chromene ring but not including an -L-Ar group. All compounds have been tested at a concentration of 125 pM.
Herbicidal activity is indicated by A for Active in the event that the plant is killed, i.e. when both cotyledons have lost all their green coloration, 48 h after application of the product.
The absence of herbicidal activity is indicated by “N” for Not active, in the case where no biological activity is observed

With Oc1cc(O)cc(CCc2ccccc2)c1 [Compound 2] the herbicidal activity was “no herbicidal activity” and the “Activity after 48h” value was “N”.

With Cc1cc(O)c2c(c1)OC(C)(C)C=C2 [Compound 3] the herbicidal activity was “no herbicidal activity” and the “Activity after 48h” value was “N”.
